Source: article PMC7158045 (BMC Plant Biology, 2020)
Where a name gives a salt, the structure may show the parent alone.

How the values were obtained:
Experiment in all cases: biochemical
ZmDRIK1-R187-P492 = target: T1, ZmDRIK1-R187-P492 (Zea mays, UniProt C0P4K9); details: read-out: dTm B, DSF, Boltzmann fit, 0.1% DMSO
T1 construct: kinase domain, R187-P492
T1 sequence (C0P4K9 1-514): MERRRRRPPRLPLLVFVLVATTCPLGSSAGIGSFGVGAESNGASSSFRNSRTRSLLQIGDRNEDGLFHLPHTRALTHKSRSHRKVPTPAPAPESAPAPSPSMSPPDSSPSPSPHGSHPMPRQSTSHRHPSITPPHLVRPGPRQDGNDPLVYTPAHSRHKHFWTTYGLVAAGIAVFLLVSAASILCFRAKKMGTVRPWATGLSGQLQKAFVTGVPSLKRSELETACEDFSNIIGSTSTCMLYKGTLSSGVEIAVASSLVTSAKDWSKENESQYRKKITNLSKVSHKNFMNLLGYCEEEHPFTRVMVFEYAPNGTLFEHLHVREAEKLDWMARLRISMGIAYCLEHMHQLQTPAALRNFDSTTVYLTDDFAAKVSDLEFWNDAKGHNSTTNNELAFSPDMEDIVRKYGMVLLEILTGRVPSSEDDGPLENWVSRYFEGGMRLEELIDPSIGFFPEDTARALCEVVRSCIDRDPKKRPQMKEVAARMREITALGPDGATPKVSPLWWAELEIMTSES

ZmDRIK1-K217-S514 = target: T2, ZmDRIK1-K217-S514 (Zea mays, UniProt C0P4K9); details: read-out: dTm B, sheet ZmDRIK1-K217-S514;; DSF, Boltzmann fit, 0.1% DMSO
T2 construct: kinase domain, K217-S514
T2 sequence (C0P4K9 1-514): T1 sequence (C0P4K9 1-514)

[1] = target: T3, ZmDRIK1 (DROUGHT RESPONSIVE INACTIVE KINASE 1), kinase domain (Zea mays, UniProt C0P4K9); details: read-out: dTm B, sheet ZmDRIK1-R187-S514;; DSF, Boltzmann fit, 0.1% DMSO
T3 construct: gene ZEAMMB73_Zm00001d028770; ZmDRIK1-KD R187-S514 (kinase domain)
T3 sequence (C0P4K9 187-514): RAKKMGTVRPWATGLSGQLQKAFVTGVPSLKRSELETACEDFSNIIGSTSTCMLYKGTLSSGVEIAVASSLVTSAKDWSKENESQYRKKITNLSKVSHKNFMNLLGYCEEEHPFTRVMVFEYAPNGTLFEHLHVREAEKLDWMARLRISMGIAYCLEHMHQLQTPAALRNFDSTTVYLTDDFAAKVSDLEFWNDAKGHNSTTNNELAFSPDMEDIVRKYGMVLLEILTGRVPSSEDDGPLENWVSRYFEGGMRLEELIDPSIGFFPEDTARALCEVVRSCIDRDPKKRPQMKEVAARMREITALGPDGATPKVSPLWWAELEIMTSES

ZmDRIK1-K217-P492 = target: T4, ZmDRIK1-K217-P492 (Zea mays, UniProt C0P4K9); details: read-out: dTm B, sheet ZmDRIK1-K217-P492;; DSF, Boltzmann fit, 0.1% DMSO
T4 construct: kinase domain, K217-P492
T4 sequence (C0P4K9 1-514): T1 sequence (C0P4K9 1-514)

ΔTm at 10 µM (ZmDRIK1-R187-P492) [°C] | ΔTm at 10 µM (ZmDRIK1-K217-S514) [°C] | ΔTm at 10 µM [1] [°C] | ΔTm at 10 µM (ZmDRIK1-K217-P492) [°C] | Compound
-0.504 | -0.426 | -1.08 | -1 | Cc1cc2c(F)c(Oc3ncnn4cc(OC[C@@H](C)OC(=O)[C@H](C)N)c(C)c34)ccc2[nH]1 [Brivanib Alaninate (BMS-582664)]
-0.394 | -0.458 | -0.713 | -1.25 | CC(C)(C)n1nc(-c2ccc(Cl)cc2)c2c(N)ncnc21 [PP2]
-0.0503 | -0.0615 | -0.576 | -0.909 | OCCn1cc(-c2cnc3nnn(Cc4ccc5ncccc5c4)c3n2)cn1 [PF-04217903]
0.197 | 0.102 | -0.782 | -0.972 | Cc1cc(Nc2ncnc3ccc(-c4ccc(CNCCS(C)(=O)=O)o4)cc23)ccc1Oc1ccn2ncnc2c1 [HER2-Inhibitor-1]
0.733 | 1.1 | -0.69 | -0.567 | Oc1cc(O)cc(/C=C/c2ccc(O)c(O)c2)c1 [Piceatannol]
-7.37 | -0.89 | -21.5 | -0.0662 | CCCS(=O)(=O)Nc1ccc(F)c(C(=O)c2c[nH]c3ncc(-c4ccc(Cl)cc4)cc23)c1F [Vemurafenib (PLX4032)]
-0.327 | -0.496 | -0.482 | -1.15 | CC(=O)Nc1cccc(-n2c(=O)n(C3CC3)c(=O)c3c(Nc4ccc(I)cc4F)n(C)c(=O)c(C)c32)c1 [Trametinib (GSK1120212)]
-0.161 | -0.215 | -0.906 | -0.856 | Cc1cc(Nc2nc(N[C@@H](C)c3ncc(F)cn3)ncc2Cl)[nH]n1 [AZD1480]
-0.278 | -0.448 | -0.884 | -0.85 | C=CC(=O)Nc1cccc(Nc2nc(Nc3ccc(N4CCN(C(C)=O)CC4)cc3OC)ncc2C(F)(F)F)c1 [CO-1686 (AVL-301)]
-0.231 | -0.321 | -0.781 | -0.725 | CNC(=O)c1ccccc1Nc1nc(Nc2ccc(N3CCOCC3)cc2OC)ncc1Cl [TAE226 (NVP-TAE226)]
-0.367 | -0.335 | -0.702 | -1.24 | CNC(=O)c1ccccc1Sc1ccc2c(/C=C/c3ccccn3)n[nH]c2c1 [Axitinib]
-0.338 | -0.346 | -0.49 | -0.496 | O=C(Cc1ccc(-c2ccc(OCCN3CCOCC3)cc2)cn1)NCc1ccccc1 [KX2-391]
-0.326 | -0.31 | -0.612 | -0.995 | CC[C@H](Nc1ncnc2[nH]cnc12)c1nc2cccc(F)c2c(=O)n1-c1ccccc1 [CAL-101 (Idelalisib)]
-0.154 | -0.31 | -0.906 | -0.775 | CC(=O)c1c(C)c2cnc(Nc3ccc(N4CCNCC4)cn3)nc2n(C2CCCC2)c1=O [Palbociclib (PD-0332991) HCl]
-0.268 | -0.433 | -0.69 | -1.37 | Cn1cnc2c(F)c(Nc3ccc(Br)cc3Cl)c(C(=O)NOCCO)cc21 [Selumetinib (AZD6244)]
0.213 | -19 | -1.96 | -0.717 | Nc1nccc(Oc2ccc(NC(=O)c3c[nH]cc(-c4ccc(F)cc4)c3=O)cc2F)c1Cl [BMS-794833]
-0.0835 | -0.274 | -0.921 | 0.0556 | CN(C)Cc1cccc(N=C(c2ccccc2)c2c(O)[nH]c3cc(C(=O)N(C)C)ccc23)c1 [BIX 02189]
-0.28 | -0.43 | -0.839 | -0.248 | CNC(=O)c1ccc(C)c(-n2c(C)cc(OCc3ccc(F)cc3F)c(Br)c2=O)c1 [PH-797804]
